Read-outs that look alike come from different tables or passages of the source.
Key:
CaMKII [1] = conditions: cited from earlier work
CaMKII [2] = target: T1, CaMKII (Rattus norvegicus, UniProt P15791); assay: Pacing-induced CaMKII activity in CaMKAR-expressing neonatal rat ventricular myocytes (NRVMs); format: cell-based
T1 construct: endogenous in cells; host or cells: neonatal rat ventricular myocytes (Sprague-Dawley)

[3] = in vivo; cited from earlier work
[4] = in vivo; cited from earlier work; remark: listed apart in the source
[5] = cited from earlier work
293T cells = assay: Cell viability in 293T cells (CellTiter-Glo 2.0); conditions: 12-hour exposure
CaMKII^T287D = target: T2, CaMKII^T287D (Homo sapiens, UniProt Q13557, T287D); assay: CaMKII inhibition in 293T cells expressing CaMKAR and CaMKII^T287D (high content imaging); format: cell-based; conditions: HEK293T cells, IC50 curves
T2 construct: expressed in transfected cells; host or cells: HEK293T

CaMKII [6] = conditions: HEK293T cells and in vitro by independent commercial laboratory
NRVMs = assay: NRVM cell viability after 48 hour compound incubation; format: cell-based, rat; conditions: 48-hour exposure
Description: FIGS. 3A-3H show which drugs in clinical use inhibit CaMKII in cardiac cells. (FIG. 3A) Fluorescence imaging timelapse of CaMKAR expressing neonatal rat ventricular cardiomyocytes (NRVMs) and (FIG. 3B) summary data during 3 Hz field pacing (n=1,065-1,160 cells). R/R0=R normalized to mean R prior to stimulation. Scale bar=50 μm. […] CaMKII inhibition % defined by min-max normalization between untreated and maximally stimulated CaMKAR signal. […] (FIG. 3E) Summary data from D at 60 seconds post stimulation. […] (FIG. 3H) Cell viability after 48 hour compound incubation. All measurements are taken from >3 biological replicates. ns=p>0.05, ****p<0.0001; significance determined via one-way ANOVA and Dunnett's multiple comparisons test (FIGS. 3C,3 E); two-way ANOVA and Tukey's multiple comparisons test (FIG. 3F).
Rat hippocampal neurons were cultured as previously described (38).

type 1 diabetic mice = assay: Atrial fibrillation induction by atrial burst pacing in type 1 diabetic mice; format: in vivo, mouse; conditions: 75 mg/kg i.p. single dose 10 minutes prior
Description: (§1) (FIG. 7A) Representative type 1 diabetic mouse tracings immediately after atrial burst pacing. […] (FIG. 7B) Atrial fibrillation (AF) inducibility percentage from mice in FIG. 7A. Number of mice analyzed per group shown in each column: 9/16 vehicle treated mice had AF vs. 2/15 Rux-treated mice. (FIG. 7C) Sequential atrial fibrillation (AF) inducibility in OGT-transgenic mice. […] Number of mice analyzed per group shown in each column (Vehicle=5/5 had AF, Rux=1/5 had AF). […] Statistical comparisons were performed using 2-tailed Fischer's exact test (FIGS. 7B, 7C); two-way ANOVA with Sidak's multiple comparison's test (FIG. 7D); paired Student's T-test (FIG. 7E); *p<0.05, ****p<0.0001.
Diabetic Mouse Model. Type-1 diabetes (T1D) was induced as previously described (57) in adult male C57BL/6J mice (The Jackson Laboratory, ME, USA) by a single intraperitoneal injection of streptozotocin (STZ)(185 mg/kg, Sigma-Aldrich) dissolved in a citrate buffer (citric acid and sodium citrate, pH 4.0) after a six hour fast. Mice were maintained on normal chow diet (NCD) (7913 irradiated NIH-31 modified 6% mouse/rat diet—15 kg, Envigo, Indianapolis, TN). Mice were considered diabetic if blood glucose level was ≥300 mg/dl via tail vein blood checked with a glucometer—OneTouch Ultra 2 (LifeScan, Zug, Switzerland). […]

OGT-transgenic mice = assay: Sequential atrial fibrillation inducibility in OGT-transgenic mice; format: in vivo, mouse; conditions: 75 mg/kg prior to second pacing
Description: as §1
75 mg/kg dosing was chosen due to previous studies determining this dose to be equivalent to the 20-25 mg dose in humans based on plasma concentration (47-49). In vivo electrophysiology (EP) studies were performed as previously reported (57) in mice anesthetized with isoflurane (2% for induction and 1.5% for maintenance of anesthesia; Isotec 100 Series Isoflurane Vaporizer; Harvard Apparatus). AF was defined as the occurrence of rapid and fragmented atrial electrograms with irregular AV-nodal conduction and ventricular rhythm for at least 1 second. If 1 or more atrial bursts (out of 5) were an AF episode, the mouse was considered to have inducible AF. […]

CREM-IbAC-X mice = assay: Spontaneous atrial fibrillation in CREM-IbAC-X mice; format: in vivo, mouse; conditions: 75 mg/kg i.p., 10 minutes after treatment
Description: as §1
Spontaneous AF. 8-months-old CREM-IbAC-X mice were monitored via surface ECG for 15 minutes to establish the baseline for time spent in atrial fibrillation (AF). AF was defined as loss of p-waves and irregularly irregular R-R intervals for >10 seconds. Each mouse was monitored at least twice with more than 24 hours interval between two recordings. After establishing the baseline, the mice were injected with placebo (10% DMSO, 2.5% Tween-20 in saline; i.p. injections) and the 15-minute ECGs were recorded between 10-25 minutes post injection.

C57BL/6J mice [7] = assay: Novel object recognition test (NORT); format: in vivo, mouse; conditions: 75 or 41 mg/kg; single dose 1 hour prior or twice daily for 7 days
C57BL/6J mice [8] = assay: Y maze spatial recognition memory test; format: in vivo, mouse
C57BL/6J mice [9] = assay: Barnes maze; format: in vivo, mouse; conditions: 150 mg/kg/day
Method: (FIG. 20B) Latency to escape the Barnes maze during the probe trial (day 6). There was no significant deficit in ruxolitinib (Rux) treated mice over vehicle (Veh). Datapoints represent individual mice. (FIGS. 20C-20E) Latency to escape maze, primary errors, and total errors of mice subjected to Barnes maze during the 4 training trials. Statistical testing shown below each graph with proportion and significance of variance by each parameter. Data shown as mean±SEM. Significance was determined via Student's T-test (FIG. 20B), or two-way ANOVA (FIGS. 20C-20E).
For the Barnes maze: A brightly lit (1100 lux) Barnes maze with 20 evenly spaced holes and an escape box placed under one of the holes was used (Maze Engineers). During training, each mouse was placed in the center of the maze and allowed to explore the maze for 3 minutes per trial. During the trial, the number of head dips and the latency to find and then enter the escape box were recorded. Mice were given two trials per day for four days. 24 hours following training, mice were given a probe trial, with the number of head dips and latency to find and then enter the escape box recorded.

[10] = rats; cited from earlier work
[11] = tested on: WT and RyR2^R176Q/WT mice; assay: ECG heart rate and electrophysiologic parameters in WT and RyR2^R176Q/WT mice
[12] = target: T3, constitutively active CaMKIIδT287D (Homo sapiens, UniProt Q13557, T287D); assay: CaMKAR-based high throughput primary screen in K562^CaMKII-CaMKAR cells; format: cell-based; conditions: 5 μM per compound, 12 hours
T3 construct: P2A-mCherry (C); expressed in transfected cells; host or cells: K562 (lentiviral, doxycycline-induced)

CaMKII [13] = target: CaMKII (Homo sapiens, UniProt Q13557); format: biochemical; conditions: 5 μM drug, 100 μM ATP
[14] = target: CaMKAR (CaMKII Activity Reporter) (human); assay: cell-based or functional assay
[15] = tested on: Purified recombinant CaMKAR
[16] = long-term ruxolitinib, median exposures 11.1 and 34.4 months

Question: With `O=c1c(O)c(-c2ccc(O)c(O)c2)oc2ccccc12` [DiOHF, 3′,4′-dihydroxyflavonol] as the compound, how does the IC50 (CaMKII [1]; read-out: published IC50) read?
Answer: 250 nM

Question: Which “inhibition of pacing-induced CaMKII activity” value (CaMKII [2]; 0.5 μM and 2 μM pre-treatment) does the source give for `O=C(Nc1nc2cccc(-c3ccc(CN4CCS(=O)(=O)CC4)cc3)n2n1)C1CC1` [Filgotinib, filgotinib] here?
Answer: failed to inhibit

Question: Which “inhibition of autonomously hyperactive CaMKII” value (CaMKII [1]) does the source give for `CN([C@@H](Cc1ccc(OS(=O)(=O)c2cccc3cnccc23)cc1)C(=O)N1CCN(c2ccccc2)CC1)S(=O)(=O)c1cccc2cnccc12` [KN-62, 1-[N,O-bis(5-isoquinolinesulfonyl)-N-methyl-L-tyrosyl]-4-phenylpiperazine] here?
Answer: fail to inhibit

Question: Which “inhibition of autonomously hyperactive CaMKII” value (CaMKII [1]) does the source give for `COc1ccc(S(=O)(=O)N(CCO)c2ccccc2CN(C)CC=Cc2ccc(Cl)cc2)cc1` [KN-93] here?
Answer: fail to inhibit

Question: With `CCN1CCN(Cc2ccc(Nc3ncc(F)c(-c4cc(F)c5nc(C)n(C(C)C)c5c4)n3)nc2)CC1` [abemaciclib] as the compound, how does the CNS penetrance [3] read?
Answer: 11-16.6%

Question: What about the “maximum human plasma concentration” value [4] of the same compound?
Answer: 243 nM

Question: What about the “Maximum dose used in humans” value ([5]; human, in vivo) of the same compound?
Answer: 200 mg BID

Question: For `CCS(=O)(=O)N1CC(CC#N)(n2cc(-c3ncnc4[nH]ccc34)cn2)C1` [baricitinib], which CNS penetrance [3] is on record?
Answer: 20% (103)

Question: What about the “maximum human plasma concentration” value [4] of the same compound?
Answer: 58 nM

Question: And the “Maximum dose used in humans” value ([5]; FDA-approved)?
Answer: 4 mg QD (97)

Question: What about the “Maximum dose used in humans” value ([5]; Healthy volunteers) of the same compound?
Answer: 40 mg (98)

Question: What about the “toxicity compared with AS100397” value (293T cells) of the same compound?
Answer: less toxic

Question: Which “potency compared with AS100397” value (CaMKII^T287D) does the source give for `CC1(COc2ccc3c(c2)ncn3-c2ccc3cccc(N4CCC(N)CC4)c3n2)COC1` [crenolanib] here?
Answer: more potent than AS100397

Question: What about the “inhibition of pacing-induced CaMKII activity at maximal human plasma concentration” value (CaMKII [2]; 3 Hz pacing, ruxolitinib 1.51 μM, crenolanib 478 nM, abemaciclib 243 nM, baricitinib 58 nM, silmitasertib 3.42 μM) of the same compound?
Answer: sustained inhibition

Question: What about the “confirmed CaMKII inhibitor after re-test” value (CaMKII [6]) of the same compound?
Answer: potent CaMKII inhibitors

Question: What about the “maximum human plasma concentration” value [4] of the same compound?
Answer: 478 nM

Question: What about the “Maximum dose used in humans” value ([5]; human, in vivo) of the same compound?
Answer: 100 mg TID

Question: What about the “toxicity compared with AS100397” value (293T cells) of the same compound?
Answer: all drugs except crenolanib were less toxic

Question: Which results are given for `N#CC[C@H](C1CCCC1)n1cc(-c2ncnc3[nH]ccc23)cn1` [ruxolitinib]?
Answer: well tolerated concentration (NRVMs): up to 100 μM; mice with AF / mice analyzed (type 1 diabetic mice): 2/15; mice with AF / mice analyzed (OGT-transgenic mice): 1/5; percent time in AF (CREM-IbAC-X mice): 33.63%; novel object recognition, percent time spent with the novel object (C57BL/6J mice [7]): Neither single dose (1 hour prior) nor multiple doses (twice daily for 7 days) of ruxolitinib (75 or 41 mg/kg) caused significant differences in novel object recognition; decreased preference for the novel arm (C57BL/6J mice [8]; higher dose single dosing and both multiple dosing cohorts): not seen; preference for the novel arm (C57BL/6J mice [8]; single dosing, lower dose (41 mg/kg)): decreased preference for the novel arm; latency, primary errors, and total errors during training trials (C57BL/6J mice [9]): no significant effect; maze solving latency at study endpoint (probe trial) (C57BL/6J mice [9]; day 6): no difference; plasma concentration over brain concentration [10]: 29 fold; CNS penetrance [3]: 3.5% (64); maximum human plasma concentration [4]: 1510 nM; Maximum dose used in humans ([5]; FDA-approved): 25 mg BID (96); Maximum dose used in humans ([5]; Healthy volunteers): 200 mg QD (76); well-tolerated dose ([5]; healthy volunteers, short-term dosing): up to 200 mg; patients discontinuing treatment due to anemia [5, 16]: < 2.6%; patients discontinuing treatment due to thrombocytopenia [5, 16]: < 3.6%; cognitive deficits in patients ([5]; prescribed for over a decade): without reported overt cognitive deficits; toxicity compared with AS100397 (293T cells): less toxic; PR ([11]; RyR^R176Q/WT mice, Baseline): 39.5 ± 1 ms; QTc ([11]; RyR^R176Q/WT mice, Baseline): 36.5 ± 5 ms; PR ([11]; RyR^R176Q/WT mice, EPI): 42.2 ± 4 ms; QTc ([11]; RyR^R176Q/WT mice, EPI): 49.5 ± 4 ms; PR ([11]; RyR^R176Q/WT mice, ISO): 43.1 ± 3 ms; QTc ([11]; RyR^R176Q/WT mice, ISO): 51.6 ± 5 ms; PR ([11]; WT mice, Baseline): 43.4 ± 4 ms; QTc ([11]; WT mice, Baseline): 48.6 ± 6 ms; PR ([11]; WT mice, EPI): 45.9 ± 2.7 ms; QTc ([11]; WT mice, EPI): 55.7 ± 8 ms; PR ([11]; WT mice, ISO): 43.8 ± 4 ms; QTc ([11]; WT mice, ISO): 49.2 ± 4 ms

Question: For `O=C(O)c1ccc2c(c1)nc(Nc1cccc(Cl)c1)c1ccncc12` [silmitasertib], which “maximum human plasma concentration” value [4] is on record?
Answer: 3420 nM

Question: What about the “Maximum dose used in humans” value ([5]; human, in vivo) of the same compound?
Answer: 1000 mg BID

Question: With `CN[C@@H]1C[C@H]2O[C@@](C)([C@@H]1OC)n1c3ccccc3c3c4c(c5c6ccccc6n2c5c31)C(=O)NC4` [staurosporine] as the compound, how does the “CaMKAR signal / hit in primary screen” value [12] read?
Answer: returned

Question: And the “inhibition in secondary screen (CaMKAR in vitro assay)” value (CaMKII [13])?
Answer: returned

Question: Which Maximal amplitude change of CaMKAR signal (R/R0), HEK293T cells, ionomycin [14] does the source give for “Constitutively active CaMKIIδC (T287D mutation) (from UniProt Q13557 1-499)” here?
Answer: 227%

Question: With Purified CaMKIIδc as the compound, how does the “dynamic range of CaMKAR ratio in vitro, plate reader, Ca2+/CaM and ATP” value [15] read?
Answer: CaMKAR displays a larger dynamic range in vitro (264±2.1%)

Question: What about the “spectral changes of purified CaMKAR in vitro” value [15] of the same compound?
Answer: Recombinant CaMKAR is fully functional and exhibits appropriate spectral changes upon incubation with purified CaMKII

Source: patent US20250228857A1, “BIOSENSOR AND USES THEREOF” (The Johns Hopkins University, priority 2022, published 2025)
